Tests used:
EV-A71 BrCr strain [1] = assay: CPE inhibition in EV-A71-infected RD cells; format: cell-based, Enterovirus A71; details: for Selectivity Index (SI) = CC50/EC50: EC50 from CPE inhibition; for EC50: Enterovirus A, EVA71, EV-A71 MOI 0.1, 72 h, read-out: EC50 based on CPE inhibition; for EV-A71-induced CPE upon visual inspection: 1.25 μM, 72 hpi
Method: (§1) EV-A71 BrCr strain, a gift from Prof. F. van Kuppeveld (University of Utrecht, Utrecht, The Netherlands), was propagated in RD cells, cultured in 2% FBS-DMEM at 37 °C under 5% CO2. […] EV-A71 stock titer was determined by the 50% tissue culture infective dose (TCID50) assay (Reed and Muench, 1938).
(§2) For RD cell line infection, 20,000 cells/well were cultured in 96-well plate at 37 °C for 24 h. To prepare virus inoculum (MOI = 0.01, 0.1, or 1), EV-A71 was diluted in 2% FBS-DMEM. Medium on cell monolayer was removed, and the inoculum was added for 1 h at 37 °C for virus adsorption. After washing, the monolayer was cultured in DMEM supplemented with 2% FBS.
(§3) Viability of HIOs and RD cells were determined by Cell Titer-Glo® 3D Cell Viability Assay (Promega, Fitchburg, WI, USA) and Cell Titer-Glo® Luminescent Cell Viability Assay (Promega), respectively. According to the manufacturer’s instructions, in a white 96-well plate (Greiner Bio-One, Stonehouse, UK), a 1:1 ratio of reagent and spent culture medium was added to the wells and mixed, and the luminescence signal was measured by CLARIO star plus (B M G Labtech Ltd., Aylesbury, UK).
(§4) For determination of compounds’ half maximal cytotoxic concentration (CC50), the non-infected HIOs/cells were treated with compounds (0.5–100 μM) for 72 h. The viability % was calculated as follows: (luminescence reading compound treated)/(luminescence reading DMSO control) × 100. The CC50 was calculated using non-linear regression (curve fit) with GraphPad Prism 9 (GraphPad, La Jolla, CA, USA). […] The CPE inhibition % was calculated as follows: (luminescence reading compound treated)/(luminescence reading DMSO control) × 100. The EC50 was calculated using non-linear regression (curve fit) with GraphPad Prism 9 (GraphPad).
(§5) Figure 4 Comparison of antiviral activity determined by CPE inhibition and viral RNA yield between HIOs and RD cells. (A) Viability of HIOs and RD cells was measured, using Cell Titer-Glo 3D or Cell Titer-Glo, after 72 h of EV-A71 infection at MOI 0.1 and incubation with compounds at indicated concentrations. CPE inhibition is calculated based on percentage of mock-infected control. The half maximal effective concentration (EC50) was calculated using Prism nonlinear regression (GraphPad Prism 9). (B) For viral RNA yield, HIOs and RD cells were infected with EV-A71 at an MOI of 0.1 and treated with compounds at indicated concentrations for 72 h before total culture of HIOs or supernatant of cells were collected by combining triplicates and determined by RT-qPCR. Viral RNA yield is calculated based on percentage of mock-infected control. The EC50 was calculated using Prism nonlinear regression (GraphPad Prism 9). (C) Brightfield images of mock control, infection treated with 1.25 µM rupintrivir, and infected control HIOs and RD cells at 72 hpi. All images were acquired using the same objective. Scale bar, […]. (D) Images represent mock-, EV-A71-infected HIOs (0.1 MOI), and EV-A71-infected HIOs (0.1 MOI) treated with rupintrivir (10 µM) at 48 hpi: DAPI (blue) for nucleus, phalloidin (red) for F-actin, and dsRNA (green). Scale bar, […]. Data are the mean ± SEM of at least six independent experiments; each carried out in triplicate.

EV-A71 BrCr strain [2] = assay: Viral RNA yield (RT-qPCR) in EV-A71-infected RD cells; format: cell-based, Enterovirus A71; details: for Selectivity Index (SI) = CC50/EC50: EC50 from RNA yield; for EC50: Enterovirus A, EVA71, EV-A71 MOI 0.1, 72 h, RT-qPCR, read-out: EC50 based on RNA yield
Method: as §1, §2
(§6) RNA was extracted from harvested samples using RNeasy Plus Mini Kit (Qiagen, Hilden, Germany). cDNA was created from the isolated RNA using High-Capacity cDNA Reverse Transcription Kit (ThermoFisher Scientific, Waltham, MA, USA) according to the manufacturer’s instructions.
(§7) For EV-A71 replication quantification, each 10 µL reaction mixture contained: 5 µL of Master Mix, 1.5 µL of RNase-free water, 0.5 µL each of gene-specific forward and reverse primer, and 3 µL of cDNA as template. The reaction plate was loaded in a LightCycler® 480 Real-Time PCR System (Roche) and ran at 95 °C for 3 min for pre-incubation, followed by 40 amplification cycles of 95 °C for 15 s and 60 °C for 60 s. Signal detection and measurements were taken in each amplification cycle. The EV-A71 viral loads in the samples were detected with the PanEV primer using a previously described customized primers probe mix (Integrated DNA Technologies, Coralville, IA, USA). The viral gene copy number was determined by absolute quantification and making a standard curve using custom gBlocks™ Gene Fragments (Integrated DNA Technologies) (5′-[…]-3′).
as §5

[3] = Cytotoxicity (Cell Titer-Glo 3D viability) in non-infected HIOs; format: cell-based; details: human; for CC50 at 72 h: non-infected HIOs, compounds 0.5–100 μM
Method: HiPSCs were cultured in colonies on Matrigel (Corning Inc., Corning, NY, USA) in mTeSR1 medium (STEMCELL Technologies, Vancouver, BC, Canada). HIOs were differentiated from the hiPSC line using STEMdiff™ Intestinal Organoid Kit (STEMCELL Technologies) following the manufacturer’s instructions. Briefly, hiPSCs were plated and differentiated towards definitive endoderm (day 3), and then to mid-/hindgut cells (day 5–9 post seeding). The spheroids generated during the mid-/hindgut stage were embedded in Matrigel and grown in intestinal growth media for further differentiation and expansion into intestinal organoids (30–45 days post hiPSCs seeding). After maturation and for long-term culture, HIOs were passaged twice a week, and medium was changed if needed every two days.
as §3
(§8) For determination of compounds’ half maximal cytotoxic concentration (CC50), the non-infected HIOs/cells were treated with compounds (0.5–100 μM) for 72 h. The viability % was calculated as follows: (luminescence reading compound treated)/(luminescence reading DMSO control) × 100. The CC50 was calculated using non-linear regression (curve fit) with GraphPad Prism 9 (GraphPad, La Jolla, CA, USA). For determination of compounds half maximal effective concentration (EC50), the infected HIOs/cells were treated with DMSO (i.e., 0 µM) or compounds (0.15–40 μM) for 72 h. The CPE inhibition % was calculated as follows: (luminescence reading compound treated)/(luminescence reading DMSO control) × 100. The EC50 was calculated using non-linear regression (curve fit) with GraphPad Prism 9 (GraphPad).

EV-A71 BrCr strain [4] = assay: CPE inhibition in EV-A71-infected HIOs; format: cell-based, Enterovirus A71; details: for Selectivity Index (SI) = CC50/EC50: EC50 from CPE inhibition; for EC50: Enterovirus A, EVA71, EV-A71 MOI 0.1, 72 h, read-out: EC50 based on CPE inhibition; for EV-A71-induced CPE upon visual inspection: 1.25 μM, 72 hpi
Method: as §1
(§9) For infection, HIOs were mechanically fragmented by vigorously pipetting using a P1000 to expose the apical surface to the virus inoculum as previously described. After virus inoculation (MOI = 0.01, 0.1, or 1) with EV-A71 or mock infection, the mixture was then incubated for 2 h at 37 °C for virus adsorption. After washing, the infected HIO fragments were mixed with 20% Matrigel-organoid growth medium and seeded at 10,000 cells/well in a 96-well plate pre-coated with 20% Matrigel-organoid growth medium at 50 µL/well.
as §3, §4, §5

[5] = Cytotoxicity (Cell Titer-Glo viability) in non-infected RD cells; format: cell-based; details: human, non-infected RD cells (ATCC CCL-136); for CC50 at 72 h: non-infected RD cells, compounds 0.5–100 μM
Method: RD cells (ATCC, CCL-136, Manassas, VA, USA) were maintained in Dulbecco’s modified Eagle’s medium (DMEM) (Gibco, Thermo Fisher Scientific, Waltham, MA, USA) supplemented with 10% fetal bovine serum (FBS) (Gibco), 1% L-glutamine (Gibco), 1% sodium bicarbonate (Gibco), and 1% penicillin-streptomycin (Gibco). The cell culture was incubated at 37 °C under 5% CO2.
as §3, §8

EV-A71 BrCr strain [6] = assay: Viral RNA yield (RT-qPCR) in EV-A71-infected HIOs; format: cell-based, Enterovirus A71; details: for Selectivity Index (SI) = CC50/EC50: EC50 from RNA yield; for EC50: Enterovirus A, EVA71, EV-A71 MOI 0.1, 72 h, RT-qPCR, read-out: EC50 based on RNA yield
Method: as §1, §9, §6, §7, §5

human rhinovirus (HRV) = system: human rhinovirus (HRV); set-up: method as in PMID 6113314, PMID 2984980; details: cited from earlier work
HRV = system: HRV; set-up: method as in PMID 14638501; details: human; cited from earlier work
HCV = system: HCV; set-up: method as in PMID 29534607, PMID 20006612, PMID 19426125; details: human, HCV infection, after 8 to 12 weeks of treatment; cited from earlier work
enteroids = details: cited from earlier work

For `C[C@@]1(O)[C@H](O)[C@@H](CO)O[C@H]1n1ccc(N)nc1=O` [2′CMC, 2′-C-methylcytidine], the “protection from virus-induced CPE” value (EV-A71 BrCr strain [1]) was “complete protection”, the “Selectivity Index (SI) = CC50/EC50” value (EV-A71 BrCr strain [1]) was over 76 and the EC50 (EV-A71 BrCr strain [1]) was 1.3 ± 0.04 µM. For the same compound, the “Selectivity Index (SI) = CC50/EC50” value (EV-A71 BrCr strain [2]) was over 50, the EC50 (EV-A71 BrCr strain [2]) was 2 ± 0.4 µM and the CC50 at 72 h [3] was 48 ± 1 µM. The “reduction of virus-induced CPE (maximum)” value (EV-A71 BrCr strain [4]; ATP-based viability assay, plateau from 2.5 μM to 20 μM) was “up to 66 ± 17%”, the “Selectivity Index (SI) = CC50/EC50” value (EV-A71 BrCr strain [4]) was 48 and the EC50 (EV-A71 BrCr strain [4]) was 1 ± 0.3 µM. For the same compound, the CC50 at 72 h [5] was over 100 µM, the “Selectivity Index (SI) = CC50/EC50” value (EV-A71 BrCr strain [6]) was 32 and the EC50 (EV-A71 BrCr strain [6]) was 1.5 ± 0.3 µM.

In the case of `CC(C)S(=O)(=O)n1c(N)nc2ccc(/C(=N/O)c3ccccc3)cc21` [Enviroxime, enviroxime], the “EV-A71-induced CPE upon visual inspection” value (EV-A71 BrCr strain [1]) is reported as “reduced”, the “Selectivity Index (SI) = CC50/EC50” value (EV-A71 BrCr strain [1]) is reported as 467 and the EC50 (EV-A71 BrCr strain [1]) is reported as 0.06 ± 0.001 µM. For the same compound, the “Selectivity Index (SI) = CC50/EC50” value (EV-A71 BrCr strain [2]) was 140, the EC50 (EV-A71 BrCr strain [2]) was 0.2 ± 0.04 µM and the viability at 72 h, 100 µM ([3]; HIOs, 100 µM) was 0%. The CC50 at 72 h [3] was 24 ± 7 µM, the “EV-A71-induced CPE upon visual inspection” value (EV-A71 BrCr strain [4]) was “reduced” and the “Selectivity Index (SI) = CC50/EC50” value (EV-A71 BrCr strain [4]) was 60. For the same compound, the EC50 (EV-A71 BrCr strain [4]) was 0.4 ± 0.2 µM, the viability at 72 h, 100 µM ([5]; RD cells, highest tested concentration 100 μM) was 20% and the CC50 at 72 h [5] was 28 ± 2 µM. For the same compound, the “side effects in clinical studies” value (human rhinovirus (HRV); HRV infection) was “gastrointestinal side effects”, the “clinical effects against infection” value (human rhinovirus (HRV)) was “no significant clinical effects” and the “Selectivity Index (SI) = CC50/EC50” value (EV-A71 BrCr strain [6]) was 17. The EC50 (EV-A71 BrCr strain [6]) was 1.4 ± 0.3 µM.

For `CCOC(=O)/C=C/[C@H](C[C@@H]1CCNC1=O)NC(=O)[C@@H](CC(=O)[C@@H](NC(=O)c1cc(C)on1)C(C)C)Cc1ccc(F)cc1` [Rupintrivir, rupintrivir], the “EV-A71-induced CPE upon visual inspection” value (EV-A71 BrCr strain [1]) was “reduced”, the “Selectivity Index (SI) = CC50/EC50” value (EV-A71 BrCr strain [1]) was over 2857 and the EC50 (EV-A71 BrCr strain [1]) was under 0.035 µM. For the same compound, the “protection from EV-A71-induced CPE” value (EV-A71 BrCr strain [1]; lowest concentration tested 0.035 μM) was “full protection”, the “Selectivity Index (SI) = CC50/EC50” value (EV-A71 BrCr strain [2]) was over 2857 and the EC50 (EV-A71 BrCr strain [2]) was under 0.035 µM. The “viral RNA levels” value (EV-A71 BrCr strain [2]; at all tested concentrations, MOI 0.1, 72 h) was 10 ± 3%, the CC50 at 72 h [3] was over 100 µM and the “EV-A71-induced CPE upon visual inspection” value (EV-A71 BrCr strain [4]) was “reduced”. The “Selectivity Index (SI) = CC50/EC50” value (EV-A71 BrCr strain [4]) was over 667, the EC50 (EV-A71 BrCr strain [4]) was under 0.15 µM and the “protection from EV-A71-induced CPE” value (EV-A71 BrCr strain [4]; lowest concentration tested 0.15 μM) was “full protection”. For the same compound, the CC50 at 72 h [5] was over 100 µM, the “adverse side effects or treatment effects in phase II clinical studies” value (HRV) was “no adverse side effects or treatment effects” and the “Selectivity Index (SI) = CC50/EC50” value (EV-A71 BrCr strain [6]) was over 59. For the same compound, the EC50 (EV-A71 BrCr strain [6]) was 1.7 ± 0.4 µM.

In the case of `CC(C)[C@H](N)C(=O)O[C@@H]1[C@@H](CO)O[C@@H](n2ccc(N)nc2=O)[C@]1(C)O` [Valopicitabine], the “side effects during clinical study” value (HCV) is listed as “gastrointestinal side effects”.

In the case of `CCC(C)n1ncn(-c2ccc(N3CCN(c4ccc(OCC5COC(Cn6cncn6)(c6ccc(Cl)cc6Cl)O5)cc4)CC3)cc2)c1=O` (stereo not shown) [itraconazole], the “cytotoxicity in enteroids compared to cell lines” value (enteroids) is listed as “enhanced cytotoxicity”.

Source: publication PMC10136548, “Evaluation of 3D Human Intestinal Organoids as a Platform for EV-A71 Antiviral Drug Discovery” (Cells, 2023)
